Results taken from PubChem BioAssay AID1918993 (Molecular Pharmacology Branch, DTP, NCI, 2023).
“And” between values parts separate entries of the source, which are not always exact repeats. Identical values can stand only once.

System: 233499-124-R-J3-PDC complex spheroid growth
Assay: Anticancer human tumor 233499-124-R-J3-PDC patient-derived colon adenocarcinoma cell line growth inhibition [AhR]
Settings: for viability, T/C: stronger effect = lower value
Excerpt: Multicellular complex tumor spheroid response to aryl hydrocarbon receptor antagonists in combination with a variety of drugs and investigational agents in selected tumor cell lines
The current study was undertaken to assess response to aryl hydrocarbon receptor antagonists in combination with standard-of-care drugs and investigational agents in solid tumor complex spheroid models. Complex spheroids include a stromal component modeled by human endothelial cells (HUVEC) and fibroblasts modeled by human mesenchymal stem cells (MSCs). The concentration ranges selected for each drug and investigational agent were based upon clinically achievable concentrations if the clinical Cmax of the agent was known.
Compounds. The drugs and investigational agents: BAY 2416964 (NSC825713), GNF351 (NSC835774), CH-223191 (NSC835775), CPI-455 (NSC825282), aza-TdCyd (NSC777586), decitabine (NSC127716), belinostat (NSC758774), entinostat (NSC756642), pevonedistat (NSC761192), tazemetostat (NSC777109), talazoparib (NSC765396), olaparib (NSC753686), selinexor (NSC780203), nedisertib (M3814, NSC802822), bortezomib (NSC756655), venetoclax (NSC766270), doxorubicin (NSC123127), elimusertib (BAY189344, NSC800525), ceralasertib (AZD6738, NSC777638), TAK-243 (NSC785004), alisertib (NSC759677), etoposide (NSC141540), topotecan (NSC609699), eribulin (NSC707389), gemcitabine (NSC613327), carboplatin (NSC241240), cisplatin (NSC119875), and SN-38 (NSC673596) were obtained from the National Cancer Institute (NCI) Developmental Therapeutics Program Chemical Repository (32). The FDA-approved anticancer drug set is available from the Developmental Therapeutics Program at https://dtp.cancer.gov/organization/dscb/obtaining/available plates.htm. […] The stock solutions were prepared in dimethyl sulfoxide (DMSO, Sigma-Aldrich, St. Louis, MO, cat. D2650), except for the platinum compounds which were prepared in saline (Quality Biological, Gaithersburg, MD, cat. 114-055-101), at 800-fold the tested concentration and stored at -70 degrees C prior to their use. All drugs and investigational agents were tested over a range starting from a high concentration at or near the clinical Cmax and decreasing in half-log increments. If the clinical Cmax for an agent had not been determined, the highest concentration tested was 10 microM (Table 1).
Cell Culture. All cells were maintained in an incubator at 37 degrees C and 5% CO2 with 95% humidity. The PDC lines were cultured according to standard operating procedures established by the NCI PDMR (https://pdmr.cancer.gov). Briefly, all PDCs were thawed and cultured in Matrigel-coated flasks prepared with a working solution of 1X Ham's F-12 nutrient mix, without supplementation (Invitrogen, Waltham, MA, cat. 11765054), 100 U/mL penicillin-streptomycin (Invitrogen, cat. 15140122), and 2.5% Matrigel (Corning Inc., Corning, NY, cat. 354248) for the first three passages. All PDCs were cultured in complete DMEM/F-12 media containing advanced DMEM/F-12 (Invitrogen, cat. 12634028), 4.9% defined fetal bovine serum, heat inactivated (HyClone Laboratories Inc., Logan, UT, cat. SH30070.03HI), 389 ng/mL hydrocortisone (Sigma-Aldrich, cat. H4001), 9.7 ng/mL human EGF recombinant protein (Invitrogen, cat. PHG0313), 23.4 microg/mL adenine (Sigma-Aldrich, cat. A2786), 97.3 U/mL penicillin-streptomycin (Invitrogen, cat. 15140122), 1.9 mM L-glutamine (Invitrogen, cat. 25030081), and 9.7 microM Y-27632 dihydrochloride (Tocris Bioscience, Bristol, United Kingdom, cat. 1254). The PDCs were cultured in complete DMEM/F12 media without 10 microM Y-27632 dihydrochloride for at least two passages prior to the screen. The established cell lines NCI-H1341 and […] were cultured in DMEM/F-12, HEPES (Invitrogen, cat. 11330032), 5% defined fetal bovine serum (HyClone Laboratories Inc., cat. SH30070.03), ITS premix universal culture supplement [insulin (5 microg/mL), transferrin (5 microg/mL), and selenious acid (5 ng/mL)] […]

[1] = curve of first compound, second compound 0.1 µM
[2] = curve of first compound, second compound 0.316 µM
[3] = curve of first compound, second compound 1 µM
[4] = curve of first compound, second compound 3.16 µM
[5] = curve of first compound, second compound 10 µM
[6] = second compound 0.1 µM, first compound 0.0316 µM
[7] = second compound 0.1 µM, first compound 0.1 µM
[8] = second compound 0.1 µM, first compound 0.316 µM
[9] = second compound 0.1 µM, first compound 1 µM
[10] = second compound 0.1 µM, first compound 3.16 µM
[11] = second compound 0.1 µM, first compound 10 µM
[12] = second compound 0.316 µM, first compound 0.0316 µM
[13] = second compound 0.316 µM, first compound 0.1 µM
[14] = second compound 0.316 µM, first compound 0.316 µM
[15] = second compound 0.316 µM, first compound 1 µM
[16] = second compound 0.316 µM, first compound 3.16 µM
[17] = second compound 0.316 µM, first compound 10 µM
[18] = second compound 1 µM, first compound 0.0316 µM
[19] = second compound 1 µM, first compound 0.1 µM
[20] = second compound 1 µM, first compound 0.316 µM
[21] = second compound 1 µM, first compound 1 µM
[22] = second compound 1 µM, first compound 3.16 µM
[23] = second compound 1 µM, first compound 10 µM
[24] = second compound 3.16 µM, first compound 0.0316 µM
[25] = second compound 3.16 µM, first compound 0.1 µM
[26] = second compound 3.16 µM, first compound 0.316 µM
[27] = second compound 3.16 µM, first compound 1 µM
[28] = second compound 3.16 µM, first compound 3.16 µM
[29] = second compound 3.16 µM, first compound 10 µM
[30] = second compound 10 µM, first compound 0.0316 µM
[31] = second compound 10 µM, first compound 0.1 µM
[32] = second compound 10 µM, first compound 0.316 µM
[33] = second compound 10 µM, first compound 1 µM
[34] = second compound 10 µM, first compound 3.16 µM
[35] = second compound 10 µM, first compound 10 µM
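Also: spheroids exposed to agents for seven days before reading.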

CC1COCCN1c1cc(C2(S(C)(=N)=O)CC2)nc(-c2ccnc3[nH]ccc23)n1 (configuration not stated) + CC(CO)NC(=O)c1cc(-c2ccc(Cl)cc2)nn(-c2cnn(C)c2)c1=O
IC50 [1]: > 10 µM | IC50 [2]: > 10 µM | IC50 [3]: > 10 µM | IC50 [4]: > 10 µM | IC50 [5]: > 10 µM | viability, T/C [6]: 101% | viability, T/C [7]: 97.2% | viability, T/C [8]: 94.2% | viability, T/C [9]: 91% | viability, T/C [10]: 75.8% | viability, T/C [11]: 74.1% | viability, T/C [12]: 88.2% | viability, T/C [13]: 89.1% | viability, T/C [14]: 97.3% | viability, T/C [15]: 83% | viability, T/C [16]: 87.4% | viability, T/C [17]: 72.1% | viability, T/C [18]: 79.7% | viability, T/C [19]: 96.2% | viability, T/C [20]: 90.3% | viability, T/C [21]: 92.3% | viability, T/C [22]: 86.9% | viability, T/C [23]: 69% | viability, T/C [24]: 98.8% | viability, T/C [25]: 95.8% | viability, T/C [26]: 91.3% | viability, T/C [27]: 85.9% | viability, T/C [28]: 82.5% | viability, T/C [29]: 68.3% | viability, T/C [30]: 72.5% | viability, T/C [31]: 79% | viability, T/C [32]: 82.2% | viability, T/C [33]: 79.5% | viability, T/C [34]: 61.8% | viability, T/C [35]: 56.6%

O=C(c1cc(Cc2n[nH]c(=O)c3ccccc23)ccc1F)N1CCN(C(=O)C2CC2)CC1 + Cc1cncc(-c2nc(NCCc3c[nH]c4ccccc34)c3ncn(C(C)C)c3n2)c1
IC50 [1]: > 10 µM | IC50 [2]: > 10 µM | IC50 [3]: > 10 µM | IC50 [4]: > 10 µM | IC50 [5]: < 0.0316 µM | viability, T/C [6]: 115% | viability, T/C [7]: 105% | viability, T/C [8]: 100% | viability, T/C [9]: 102% | viability, T/C [10]: 98.6% | viability, T/C [11]: 105% | viability, T/C [12]: 106% | viability, T/C [13]: 99.3% | viability, T/C [14]: 96.3% | viability, T/C [15]: 95.5% | viability, T/C [16]: 103% | viability, T/C [17]: 92.3% | viability, T/C [18]: 87.5% | viability, T/C [19]: 97.2% | viability, T/C [20]: 93.9% | viability, T/C [21]: 71.5% | viability, T/C [22]: 87.5% | viability, T/C [23]: 86% | viability, T/C [24]: 74.8% | viability, T/C [25]: 86.4% | viability, T/C [26]: 76.3% | viability, T/C [27]: 83.6% | viability, T/C [28]: 85.9% | viability, T/C [29]: 90.1% | viability, T/C [30]: 5.45% | viability, T/C [31]: 6.91% | viability, T/C [32]: 19.4% | viability, T/C [33]: 16.2% | viability, T/C [34]: 8.78% | viability, T/C [35]: 19.1%

Cn1ncnc1C1c2n[nH]c(=O)c3cc(F)cc(c23)NC1c1ccc(F)cc1 (configuration not stated)
viability, T/C (compound 0.000316 µM): 97.9% and 96.7% and 93.9% | viability, T/C (compound 0.001 µM): 108% (2×) and 81% | viability, T/C (compound 0.00316 µM): 108% and 106% and 97.9% | viability, T/C (compound 0.01 µM): 102% and 109% and 99.2% | viability, T/C (compound 0.0316 µM): 92.5% and 107% and 103% | viability, T/C (compound 0.1 µM): 96.4% and 91.3% and 92.3% | IC50 (curve of compound): > 0.1 µM
